Assay results taken from patent publication US11166924B2, “N-methyl-d-aspartate receptor allosteric modulators and methods for their use” (Qingdao Primedicine Pharmaceutical Company, Ltd., priority 2016, dated 2021).
Read-outs that look alike come from different tables or passages of the source. Blank lines part the entries; values can stand above or below the compound they belong to.

Key:
Assay type in all cases: cell-based
GluN1/GluN2A NMDARs = target: T1, GluN1/GluN2A NMDARs (Rattus norvegicus, UniProt P35439+Q00959); assay: Whole-cell patch clamp recordings in HEK293 cells transfected with GluN1/GluN2A; conditions: for Enhancement of NMDA-mediated currents: compared to glutamate alone; for Selectivity for GluN1/GluN2A versus GluN1/GluN2B NMDARs: FIG. 2, HEK293 cells expressing GluN1/GluN2A and GluN1/GluN2B; for Normalized Potentiation: positive modulation of GluN1/GluN2A NMDARs, concentration not given
T1 construct: expressed in transfected cells; host or cells: HEK293
Method in brief: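 Rat GluN1/GluN2A (1:1) transiently expressed in HEK293, recorded 48 h post-transfection by whole-cell voltage clamp at −60 mV, room temperature. CsCl/BAPTA pipette solution, pH 7.4 bath, glutamate/NMDA-evoked currents by fast perfusion. ≥6 cells per compound; EC50, relative efficacy versus maximal glutamate response and Hill slope from pooled dose-response fits.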

GluN1/GluN2A^Q111A = target: T2, GluN1/GluN2A^Q111A (Rattus norvegicus, UniProt P35439+Q00959, Q111A); assay: Patch clamp in HEK293 cells expressing mutant GluN1/GluN2A Q111A
T2 construct: expressed in transfected cells; host or cells: HEK293
T2 sequence (Q00959 23-1464 Q111A, other chains not shown): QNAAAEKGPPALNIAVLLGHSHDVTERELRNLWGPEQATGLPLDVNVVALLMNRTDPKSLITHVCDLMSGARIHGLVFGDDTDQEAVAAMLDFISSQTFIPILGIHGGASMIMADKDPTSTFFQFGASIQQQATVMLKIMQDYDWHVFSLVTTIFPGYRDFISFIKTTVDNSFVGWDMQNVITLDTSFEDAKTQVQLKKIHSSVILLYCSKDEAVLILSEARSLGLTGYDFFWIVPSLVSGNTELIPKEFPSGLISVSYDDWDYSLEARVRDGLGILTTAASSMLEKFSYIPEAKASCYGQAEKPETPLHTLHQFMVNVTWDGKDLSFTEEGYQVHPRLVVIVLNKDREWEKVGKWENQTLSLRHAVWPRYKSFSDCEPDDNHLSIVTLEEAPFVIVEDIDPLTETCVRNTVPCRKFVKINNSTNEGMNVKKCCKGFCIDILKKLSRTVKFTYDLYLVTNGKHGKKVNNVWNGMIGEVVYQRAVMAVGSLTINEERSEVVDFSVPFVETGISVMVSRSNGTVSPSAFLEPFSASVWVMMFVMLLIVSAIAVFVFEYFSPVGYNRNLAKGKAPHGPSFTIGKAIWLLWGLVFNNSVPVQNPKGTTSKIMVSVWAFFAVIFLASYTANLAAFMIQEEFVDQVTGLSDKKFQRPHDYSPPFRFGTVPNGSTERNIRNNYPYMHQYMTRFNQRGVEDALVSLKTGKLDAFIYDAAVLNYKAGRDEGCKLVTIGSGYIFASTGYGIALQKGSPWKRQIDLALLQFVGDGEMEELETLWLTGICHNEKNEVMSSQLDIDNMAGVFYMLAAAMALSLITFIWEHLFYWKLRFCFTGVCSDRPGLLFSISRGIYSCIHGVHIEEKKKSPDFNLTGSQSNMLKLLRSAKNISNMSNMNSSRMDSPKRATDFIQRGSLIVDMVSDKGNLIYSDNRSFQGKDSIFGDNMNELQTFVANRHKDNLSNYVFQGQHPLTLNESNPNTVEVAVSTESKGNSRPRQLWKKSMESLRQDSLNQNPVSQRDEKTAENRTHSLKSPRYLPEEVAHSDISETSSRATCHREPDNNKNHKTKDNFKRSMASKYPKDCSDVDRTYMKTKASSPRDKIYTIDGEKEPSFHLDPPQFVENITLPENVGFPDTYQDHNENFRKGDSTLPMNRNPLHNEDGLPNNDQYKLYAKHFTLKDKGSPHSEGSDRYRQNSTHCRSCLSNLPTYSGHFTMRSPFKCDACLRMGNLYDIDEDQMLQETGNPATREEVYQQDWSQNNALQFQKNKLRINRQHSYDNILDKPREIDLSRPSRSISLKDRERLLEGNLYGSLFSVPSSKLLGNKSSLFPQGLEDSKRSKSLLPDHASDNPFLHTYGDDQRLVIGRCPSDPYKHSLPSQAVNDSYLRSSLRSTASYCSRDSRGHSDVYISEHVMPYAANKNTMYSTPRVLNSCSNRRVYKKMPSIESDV
Description: (§1) Whole cell patch-clamp recordings were performed under voltage-clamp mode using an Axopatch 200B or 1D patch-clamp amplifier (Molecular Devices). Whole-cell currents were recorded at a holding potential of −60 mV unless indicated elsewhere, and signals were filtered at 2 kHz, digitized at 10 kHz (Digidata 1322A). Recording pipettes (3-5 MΩ) were filled with intracellular solution containing (mM): CsCl 140, HEPES 10, Mg-ATP 4, QX-314 5, pH 7.20; osmolarity, 290-295 mOsm. BAPTA (10 mM) was added in the intracellular solution (unless otherwise specified). The coverslips were continuously superfused with extracellular solution containing (mM): NaCl 140, KCl 5.4, HEPES 10, CaCl2 1.3, glucose 20, pH 7.4; osmolarity, 305-315 mOsm. NMDA-induced currents were applied by NMDA through perfusion fast-step (Warner Instruments). With perfusion fast-step system, NMDA application was achieved by using a two-square barrel glass tubing and depending on the age of the cultured neurons, CNQX (10 μM), TTX (0.5 μM) or BIC (10 μM) were added in the extracellular solution to minimize the activation of ionotropic glutamate receptors and voltage-gated sodium channels, respectively. All experiments were performed at room temperature. Recordings from at least six HEK293 cells/neurons were performed for all active compounds. Data were pooled among HEK293 cells or primary neurons and composite dose-response data were fitted by the equation Percentage Response=100×Relative Efficacy/[1+(EC50/Concentration)nH], where EC50 is the concentration of agonist that produces a half-maximal response, relative efficacy is the response at maximally effective concentration relative to the maximal response of glutamate, and nH is the Hill slope.
(§2) The site-directed mutagenesis of GluN1 or GluN2A subunits were performed by using the QuikChange method (Stratagene). All mutant clones were confirmed by DNA sequencing. Wild-type or mutant subunits were transfected in HEK293 cells and subjected to electrophysiology examinations. […]

GluN1/GluN2B NMDARs = target: T3, GluN1/GluN2B NMDARs (Rattus norvegicus, UniProt P35439+Q00960); assay: Whole-cell patch clamp recordings in HEK293 cells transfected with GluN1/GluN2B
T3 construct: expressed in transfected cells; host or cells: HEK293
T3 sequence (Q00960 27-1482, other chains not shown): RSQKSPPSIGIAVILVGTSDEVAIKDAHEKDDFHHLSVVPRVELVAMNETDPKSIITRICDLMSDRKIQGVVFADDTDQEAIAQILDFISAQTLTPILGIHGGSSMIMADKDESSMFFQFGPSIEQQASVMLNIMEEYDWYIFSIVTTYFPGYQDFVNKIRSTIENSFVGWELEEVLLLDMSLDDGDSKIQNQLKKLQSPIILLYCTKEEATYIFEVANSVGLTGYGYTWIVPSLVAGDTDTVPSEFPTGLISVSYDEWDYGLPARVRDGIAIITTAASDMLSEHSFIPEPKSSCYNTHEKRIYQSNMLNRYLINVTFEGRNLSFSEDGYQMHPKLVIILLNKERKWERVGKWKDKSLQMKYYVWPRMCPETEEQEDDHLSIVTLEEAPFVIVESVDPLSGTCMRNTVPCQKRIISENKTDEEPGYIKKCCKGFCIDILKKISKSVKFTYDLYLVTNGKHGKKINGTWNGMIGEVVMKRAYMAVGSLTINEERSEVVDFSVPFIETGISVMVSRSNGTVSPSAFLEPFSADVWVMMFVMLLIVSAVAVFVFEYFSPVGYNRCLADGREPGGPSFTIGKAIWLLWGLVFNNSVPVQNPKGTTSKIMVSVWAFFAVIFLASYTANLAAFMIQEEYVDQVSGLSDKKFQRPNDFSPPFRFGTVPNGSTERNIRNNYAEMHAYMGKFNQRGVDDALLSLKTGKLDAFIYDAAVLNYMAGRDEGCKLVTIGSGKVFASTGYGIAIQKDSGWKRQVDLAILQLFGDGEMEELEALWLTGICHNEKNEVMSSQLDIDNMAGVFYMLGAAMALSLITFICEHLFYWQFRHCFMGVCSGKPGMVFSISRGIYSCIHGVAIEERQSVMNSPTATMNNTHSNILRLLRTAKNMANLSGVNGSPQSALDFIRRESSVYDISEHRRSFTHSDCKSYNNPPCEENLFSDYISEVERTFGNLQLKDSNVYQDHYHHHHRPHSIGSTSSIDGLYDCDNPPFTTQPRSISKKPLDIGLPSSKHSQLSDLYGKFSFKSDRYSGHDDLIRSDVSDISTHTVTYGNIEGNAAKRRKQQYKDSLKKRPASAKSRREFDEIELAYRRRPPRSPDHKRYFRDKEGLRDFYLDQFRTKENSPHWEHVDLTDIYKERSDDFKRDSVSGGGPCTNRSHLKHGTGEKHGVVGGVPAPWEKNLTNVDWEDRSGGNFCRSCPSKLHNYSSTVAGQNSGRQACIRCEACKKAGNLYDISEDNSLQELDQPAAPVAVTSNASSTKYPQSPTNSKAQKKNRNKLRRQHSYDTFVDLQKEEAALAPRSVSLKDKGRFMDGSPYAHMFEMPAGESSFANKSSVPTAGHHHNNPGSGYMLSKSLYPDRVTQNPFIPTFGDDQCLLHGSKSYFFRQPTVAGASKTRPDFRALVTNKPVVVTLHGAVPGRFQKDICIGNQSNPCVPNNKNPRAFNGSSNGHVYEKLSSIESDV

[1] = target: NMDARs in cultured hippocampal neurons (Rattus norvegicus, UniProt P35439+Q00959); assay: Whole-cell voltage clamp recordings of NMDAR currents in cultured hippocampal/cortical neurons
GluN1/GluN2A^F177S = target: T4, GluN1/GluN2A^F177S (Rattus norvegicus, UniProt P35439+Q00959, F177S); assay: Patch clamp in HEK293 cells expressing mutant GluN1/GluN2A F177S
T4 construct: expressed in transfected cells; host or cells: HEK293
T4 sequence (Q00959 23-1464 F177S, other chains not shown): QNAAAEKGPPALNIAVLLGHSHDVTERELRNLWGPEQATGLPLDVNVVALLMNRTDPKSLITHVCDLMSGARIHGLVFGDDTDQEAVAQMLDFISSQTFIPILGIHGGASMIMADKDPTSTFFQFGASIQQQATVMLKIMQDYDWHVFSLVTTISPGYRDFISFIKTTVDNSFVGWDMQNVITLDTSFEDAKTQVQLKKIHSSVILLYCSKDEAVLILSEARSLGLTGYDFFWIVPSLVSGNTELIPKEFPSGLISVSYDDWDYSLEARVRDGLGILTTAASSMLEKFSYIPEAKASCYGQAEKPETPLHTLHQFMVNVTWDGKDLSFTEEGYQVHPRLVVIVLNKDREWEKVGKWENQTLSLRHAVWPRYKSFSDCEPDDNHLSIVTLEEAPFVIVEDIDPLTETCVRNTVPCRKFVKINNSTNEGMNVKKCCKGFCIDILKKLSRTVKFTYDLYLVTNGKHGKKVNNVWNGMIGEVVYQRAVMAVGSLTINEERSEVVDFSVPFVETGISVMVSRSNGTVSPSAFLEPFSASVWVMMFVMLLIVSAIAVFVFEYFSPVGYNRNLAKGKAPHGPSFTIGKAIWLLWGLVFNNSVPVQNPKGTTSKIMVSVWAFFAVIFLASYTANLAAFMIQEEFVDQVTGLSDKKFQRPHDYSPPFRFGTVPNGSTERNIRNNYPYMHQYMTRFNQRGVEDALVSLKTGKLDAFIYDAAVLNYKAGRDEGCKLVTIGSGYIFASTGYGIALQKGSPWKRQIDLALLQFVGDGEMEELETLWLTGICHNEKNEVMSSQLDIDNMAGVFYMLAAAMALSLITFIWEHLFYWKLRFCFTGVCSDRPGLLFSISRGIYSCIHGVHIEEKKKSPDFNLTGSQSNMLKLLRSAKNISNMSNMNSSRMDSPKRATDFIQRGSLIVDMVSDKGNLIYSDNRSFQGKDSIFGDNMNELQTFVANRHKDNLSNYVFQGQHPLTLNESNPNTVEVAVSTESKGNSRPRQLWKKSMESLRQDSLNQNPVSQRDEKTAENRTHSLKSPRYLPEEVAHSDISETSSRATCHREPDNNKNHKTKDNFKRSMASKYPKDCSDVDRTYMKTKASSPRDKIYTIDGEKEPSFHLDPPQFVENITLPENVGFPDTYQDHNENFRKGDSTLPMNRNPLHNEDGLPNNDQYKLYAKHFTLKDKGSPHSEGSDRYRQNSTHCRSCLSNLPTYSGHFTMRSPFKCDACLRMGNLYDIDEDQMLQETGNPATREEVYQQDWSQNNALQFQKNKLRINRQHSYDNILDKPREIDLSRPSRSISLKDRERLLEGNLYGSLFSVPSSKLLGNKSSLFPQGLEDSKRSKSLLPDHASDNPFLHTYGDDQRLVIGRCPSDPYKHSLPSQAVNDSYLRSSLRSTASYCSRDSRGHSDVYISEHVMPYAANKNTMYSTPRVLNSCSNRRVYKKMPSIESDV
Description: as §1, §2

Currents induced by compound applied alone (GluN1/GluN2A NMDARs; 100 μM alone): no changes of inward or outward currents
Enhancement of NMDA-mediated currents (GluN1/GluN2A NMDARs; 100 μM co-applied with co-agonists): 38.85±3.70%
Modulation effect, wild-type (GluN1/GluN2A NMDARs; 100 μM, wild-type GluN1/GluN2A, FIG. 8c): 41.75±2.62%
Enhancement of NMDA-mediated currents (GluN1/GluN2A NMDARs; 200 μM co-applied with co-agonists): 71.69±5.03%
Selectivity for GluN1/GluN2A versus GluN1/GluN2B NMDARs (GluN1/GluN2A NMDARs): selective for GluN1/GluN2A NMDARs
Normalized Potentiation (GluN1/GluN2A NMDARs; Table 1): 243.57 ± 24.81%
Modulation effect, GluN2A Gln111Ala (GluN1/GluN2A^Q111A; 100 μM, FIG. 8c): 30.69±1.60%
Currents induced by compound on its own (GluN1/GluN2B NMDARs): did not induce currents on its own
activation at 100 µM (GluN1/GluN2B NMDARs; HEK293, Table 2, 100 μM, read-out: Normalized Potentiation GluN1/GluN2B): -4.82 ± 2.83%
activation at 100 µM ([1]; 100 μM bath, NMDA 5 uM, glycine 2 μM, compared to NMDA control, read-out: Modulation of NMDAR currents): 43 ± 6.55%
Modulation effect, GluN2A Phe177Ser (GluN1/GluN2A^F177S; 100 μM, FIG. 8c): 22.86±1.12%
Compound: COc1cccc(/C=N/NC(=O)c2ccccc2C)c1O [Npam02, (E)-N′-(2-hydroxy-3-methoxybenzylidene)-2-methylbenzohydrazide]
Potentiation of NMDAR currents (GluN1/GluN2B NMDARs; 100 μM): did not exhibit potentiation of NMDAR currents
Currents induced by compound on its own [1]: not able to induce inward or outward currents on its own

Compound: CCOc1cc(Cl)c(Cl)c(/C=N/NC(=O)c2ccccc2Br)c1O [Npam43, (E)-2-bromo-N′-(2,3-dichloro-5-ethoxy-6-hydroxybenzylidene)benzohydrazide]
Currents evoked by compound on its own (GluN1/GluN2A NMDARs): did not evoke currents on its own
Enhancement of NMDA-mediated currents (GluN1/GluN2A NMDARs; 10 μM co-applied with co-agonists): dramatically enhanced
Selectivity for GluN1/GluN2A versus GluN1/GluN2B NMDARs (GluN1/GluN2A NMDARs): selective for GluN1/GluN2A NMDARs
Normalized Potentiation (GluN1/GluN2A NMDARs; Table 1): 363.52 ± 27.3%
EC50 (GluN1/GluN2A NMDARs; Table 1, potentiation, read-out: EC50): 0.27 µM
Relative potentiation (GluN1/GluN2A NMDARs; Table 3, GluN1^WT/GluN2A^WT): 209 ± 6.7%
Saturation of enhancement relative to co-agonists alone baseline (GluN1/GluN2A NMDARs; dose-response, FIG. 9): ~350%
EC50 (GluN1/GluN2A NMDARs; dose-response, FIG. 9, read-out: EC50 of enhancement of GluN1/GluN2A currents): 0.24 ± 0.05 µM
EC50 (GluN1/GluN2A NMDARs; dose-response, FIG. 9, read-out: pEC50 of enhancement of GluN1/GluN2A currents (converted)): ~0.243 µM
Net Difference potentiation (GluN1/GluN2A^Q111A; GluN2A Q111A, normalized to Npam43 response in wild-type GluN1/GluN2A): −38.4±0.78%
Relative potentiation (GluN1/GluN2A^Q111A; Table 3, GluN2A Q111A): 129 ± 6.7%
Potentiation of NMDAR currents (GluN1/GluN2B NMDARs; 10 μM): did not exhibit potentiation
Dose-dependent enhancement of currents (GluN1/GluN2B NMDARs; GluN2B-containing NMDARs recordings): No dose-dependent enhancement of currents
activation at 10 µM ([1]; 10 μM, read-out: Potentiation at saturation point, above control level baseline): 322 ± 27%
Selective potentiation of GluN1/GluN2A NMDARs in hippocampal neurons ([1]; FIG. 12, with ifenprodril, NVP-AAM077, AP5 controls): selectively potentiates GluN1/GluN2A NMDARs
Shift of NMDA dose-response curve ([1]; Npam43 5 μM): shifted left
Net Difference potentiation (GluN1/GluN2A^F177S; GluN2A F177S, normalized to wild-type): −61.7 ± 0.03%
Relative potentiation (GluN1/GluN2A^F177S; Table 3, GluN2A F177S): 79.9 ± 2.6%
